Values after ≈ are worked out from the molar mass of the structure shown.
Tests used:
[1] = test system: Staphylococcus aureus ATCC 29213; experiment: In vitro antibacterial activity (MIC), microbroth dilution; assay type: cell-based; details: ATCC29213, 37° C., 18 h
[2] = test system: Acinetobacter baumannii ATCC 19606; experiment: as above; assay type: cell-based; details: ATCC19606, 37° C., 18 h, read-out: MIC Acinetobacter baumannii ATCC 19606
[3] = test system: Mycobacterium tuberculosis; experiment: Activity against Mycobacterium tuberculosis (MIC); assay type: cell-based; details: read-out: Inhibitory activity (MIC) against Mycobacterium tuberculosis
[4] = test system: Staphylococcus epidermidis MRSE 15-1; experiment: In vitro antibacterial activity (MIC), microbroth dilution; assay type: cell-based; details: 37° C., 18 h
[5] = test system: Escherichia coli ATCC25922; details: prior art value; cited from earlier work
[6] = test system: Staphylococcus aureus ATCC 29213; experiment: In vitro induced drug resistance, 20 generations at sub-MIC; assay type: cell-based; details: ATCC29213, read-out: MIC value after passage for 20 generations
Experimental: Test method: MIC values of a compound 1 and a control compound DS2969 against Staphylococcus aureus ATCC 29213 were determined by using a microbroth dilution method recommended by operating procedures for antibacterial susceptibility testing of the Clinical and Laboratory Standards Institute (CLSI).
After testing the MIC values, sub-MIC concentrations (1/2 MIC) of bacteria were diluted, and the concentration of the obtained bacterial solution was adjusted to 105 CFU/mL for a next round of MIC value testing. After 24 hours of incubation, bacterial suspensions were prepared by using bacterial suspensions at sub-MIC concentrations of drugs (1/2 MIC), and another MIC testing was performed. This process was repeated for 20 times, and the MIC value for each test was recorded.
The MIC values of the compound 1 and DS2969 inducing Staphylococcus aureus ATCC29213 for 20 generations were recorded, with the number of generations of bacteria induced as an abscissa and the MIC values as an ordinate (as shown in FIG. 1).

[7] = test system: Staphylococcus aureus (MRSA, ATCC 43300); experiment: Antibacterial activity in mice, sepsis model; assay type: in vivo, ICR mice; details: Staphylococcus aureus, po; MRSA ATCC 43300 sepsis model, intragastric administration at lower dose
Experimental: Experimental animals: Beijing Vital River Laboratory Animal Technology Co., Ltd., ICR mice, with a uniform body weight of 20-22 g, and half male and half female.
Model: Sepsis model infected by Staphylococcus aureus (MRSA, ATCC 43300)
Modeling method: mice were infected with […] (diluted with a 5% sterile yeast solution) Staphylococcus aureus (MRSA, ATCC 43300) such that sepsis models of mice were formed (0.5 mL of a bacterial solution was injected intraperitoneally into each mouse).
Experimental scheme: a compound 1 and a positive drug were first dissolved in DMSO, and then diluted with other solvents, wherein a solvent ratio was saline:Tween 80:DMSO=9:0.5:0.5.

[8] = test system: Staphylococcus aureus ATCC 43300 (MRSA); experiment: In vitro antibacterial activity (MIC), microbroth dilution; assay type: cell-based; details: 37° C., 18 h, read-out: MIC Staphylococcus aureus ATCC 43300 (MRSA)
[9] = test system: Klebsiella pneumoniae KPN-15-1; experiment: as above; assay type: cell-based; details: KPN151, 37° C., 18 h, read-out: MIC Klebsiella pneumoniae KPN-15-1
[10] = test system: Staphylococcus epidermidis ATCC 12228; experiment: as above; assay type: cell-based; details: ATCC12228, 37° C., 18 h
[11] = test system: Clostridium difficile ATCC 9689; experiment: as above; assay type: cell-based; details: Clostridioides difficile, ATCC9689; read-out: MIC Clostridium difficile ATCC 9689
[12] = test system: Staphylococcus aureus MRSA 15-1; experiment: as above; assay type: cell-based; details: 37° C., 18 h
[13] = test system: Escherichia coli ATCC 35218; experiment: as above; assay type: cell-based; details: ATCC35218, 37° C., 18 h, read-out: MIC Escherichia coli ATCC 35218
[14] = test system: Pseudomonas aeruginosa ATCC 27853; experiment: as above; assay type: cell-based; details: ATCC27853, 37° C., 18 h, read-out: MIC Pseudomonas aeruginosa ATCC 27853
[15] = test system: Enterococcus faecalis ATCC 51575; experiment: as above; assay type: cell-based; details: ATCC51575, 37° C., 18 h
[16] = test system: Enterococcus faecium EFM 19-1; experiment: as above; assay type: cell-based; details: EFM191, 37° C., 18 h
[17] = test system: Staphylococcus aureus ATCC 29213; details: prior art value; cited from earlier work
[18] = test system: Staphylococcus aureus ATCC 25923; experiment: In vitro antibacterial activity (MIC), microbroth dilution; assay type: cell-based; details: ATCC25923, 37° C., 18 h
[19] = test system: Escherichia coli ATCC 25922; experiment: as above; assay type: cell-based; details: ATCC25922, 37° C., 18 h, read-out: MIC Escherichia coli ATCC 25922
[20] = test system: Escherichia coli ECO+ 15-1; experiment: as above; assay type: cell-based; details: 37° C., 18 h, read-out: MIC Escherichia coli ECO+ 15-1

Structure (SMILES): CCc1[nH]c(C(=O)N[C@@H]2CCN(c3nnc(C(C)(C)O)s3)C[C@@H]2OC)nc1Cl [DS2969, reference compound]
- MIC [1]: 0.5 µg/mL (≈ 1.17 µM)
- MIC [2]: > 64 µg/mL
- MIC [3]: 0.654 µg/mL (≈ 1.52 µM)
- MIC [4]: 0.5 µg/mL (≈ 1.17 µM)
- MIC Escherichia coli ATCC25922 (background) [5]: 32 µg/mL (≈ 74.6 µM)
- MIC [6]: 16 µg/mL (≈ 37.3 µM)
- ED50 [7]: > 10 mg/kg
- MIC [8]: 0.5 µg/mL (≈ 1.17 µM)
- MIC [9]: > 64 µg/mL
- MIC [10]: 0.5 µg/mL (≈ 1.17 µM)
- MIC [11]: 0.5 µg/mL (≈ 1.17 µM)
- MIC [12]: 0.5 µg/mL (≈ 1.17 µM)
- MIC [13]: 32 µg/mL (≈ 74.6 µM)
- MIC [14]: > 64 µg/mL
- MIC [15]: 0.5 µg/mL (≈ 1.17 µM)
- MIC [16]: 0.5 µg/mL (≈ 1.17 µM)
- MIC Staphylococcus aureus ATCC 29213 (background) [17]: 0.2 µg/mL (≈ 0.466 µM)
- MIC [18]: 0.5 µg/mL (≈ 1.17 µM)
- MIC [19]: 32 µg/mL (≈ 74.6 µM)
- MIC [20]: > 64 µg/mL

Reference: US20240351999A1, “PYRROLYLACYLPIPERIDYLAMINE COMPOUND AND USE THEREOF” (INSTITUTE OF MATERIA MEDICA ,CHINESE ACADEMY OF MEDICAL …, priority 2021, published 2024)
